According to patent US12162867B2, “Inhibitors of RNA helicase DHX9 and uses thereof” (ACCENT THERAPEUTICS, INC., priority 2022, dated 2024):

test system: circBRIP1 in HCT116 cells; assay: DHX9 circBRIP1 cellular target engagement SYBR Green assay (qPCR); format: cell-based; conditions: Homo sapiens, HCT-116, circBRIP1, HCT116 cells; SyBr assay (marked ^+); read-out: DHX9 Cellular Target Engagement EC50

Row | Compound | EC50 [nM]
1 | CS(=O)(=O)Nc1cc(F)cc(NC(=O)c2cc(-c3ccccn3)cs2)c1 [Example 112, N-(3-fluoro-5-(methylsulfonamido)phenyl)-4-(pyridin-2-yl)thiophene-2-carboxamide] | 627
2 | CCS(=O)(=O)Nc1cc(F)cc(NC(=O)c2cc(-c3ccccn3)cs2)c1 [Example 113] | 7440
3 | CS(=O)(=O)Nc1cc(F)cc(NC(=O)c2cc(-c3ccccc3O)cs2)c1 [Example 114] | 1480
4 | CS(=O)(=O)Nc1cc(Cl)cc(NC(=O)c2cc(-c3cccnc3)cs2)c1 [Example 116, N-(3-chloro-5-(methylsulfonamido)phenyl)-4-(pyridin-3-yl)thiophene-2-carboxamide] | 734
5 | CS(=O)(=O)Nc1cc(Cl)cc(NC(=O)c2cccc(-n3cccn3)c2)c1 [Example 117] | 3870
6 | CS(=O)(=O)Nc1cc(Br)cc(NC(=O)c2cccc(-n3cccn3)c2)c1 [Example 118] | 2930
7 | CS(=N)(=O)Nc1cc(Br)cc(NC(=O)c2cc(-c3ccccn3)cs2)c1 (stereo not shown) [Example 121, N-(3-bromo-5-(methylsulfonoamidimidamido)phenyl)-4-(pyridin-2-yl)thiophene-2-carboxamide] | 5430
8 | Cc1cccnc1-c1csc(C(=O)Nc2cc(Br)cc(NS(C)(=N)=O)c2)c1 (stereo not shown) [Example 122] | 1290
9 | Cc1sc(C(=O)Nc2cc(Br)cc(NS(C)(=N)=O)c2)cc1-c1ccccn1 (stereo not shown) [Example 123] | 6590
10 | CS(=O)(=O)Nc1cc(Cl)cc(NC(=O)c2csc(-c3ccccc3)c2)c1 [Example 124, N-(3-chloro-5-(methylsulfonamido)phenyl)-5-phenylthiophene-3-carboxamide] | 5140
11 | CS(=O)(=O)Nc1cc(Cl)cc(NC(=O)c2coc(-c3ccccc3)c2)c1 [Example 125] | 16100
12 | CS(=O)(=O)Nc1cc(Cl)cc(NC(=O)c2cnn(CCCO)c2)c1 [Example 126, N-(3-chloro-5-(methylsulfonamido)phenyl)-1-(3-hydroxypropyl)-1H-pyrazole-4-carboxamide] | > 10000
13 | CS(=O)(=O)Nc1cc(Cl)cc(NC(=O)c2cnn(CCO)c2)c1 [Example 127] | > 10000
14 | CS(=O)(=O)Nc1cc(Cl)cc(NC(=O)c2cnn(C3CC4(COC4)C3)c2)c1 [Example 128] | > 10000
15 | CS(=O)(=O)Nc1cc(Cl)cc(NC(=O)c2cnn(C3CCOCC3)c2)c1 [Example 131, N-(3-chloro-5-(methylsulfonamido)phenyl)-1-(tetrahydro-2H-pyran-4-yl)-1H-pyrazole-4-carboxamide] | > 10000
16 | CC(C)(C)OC(=O)N1CCC(n2cc(C(=O)Nc3cc(Cl)cc(NS(C)(=O)=O)c3)cn2)CC1 [Example 136] | 6410
17 | Cn1nc(C(=O)Nc2cc(Cl)cc(NS(C)(=O)=O)c2)cc1-c1ccccc1OCc1ccccc1 [Example 138, 5-(2-(benzyloxy)phenyl)-N-(3-chloro-5-(methylsulfonamido)phenyl)-1-methyl-1H-pyrazole-3-carboxamide] | > 10000
18 | Cn1nc(C(=O)Nc2cc(Cl)cc(NS(C)(=O)=O)c2)cc1-c1ccccn1 [Example 140] | > 10000
19 | Cn1nc(-c2ccccn2)cc1C(=O)Nc1cc(Cl)cc(NS(C)(=O)=O)c1 [Example 141] | > 10000
20 | CC(c1ccccc1)n1cc(C(=O)Nc2cc(Cl)cc(NS(C)(=O)=O)c2)cn1 (stereo not shown) [Example 142, N-(3-chloro-5-(methylsulfonamido)phenyl)-1-(1-phenylethyl)-1H-pyrazole-4-carboxamide] | > 10000
21 | CC(C)(C)OC(=O)N1CC2(CC(n3cc(C(=O)Nc4cc(Cl)cc(NS(C)(=O)=O)c4)cn3)C2)C1 [Example 144, tert-butyl 6-(4-((3-chloro-5-(methylsulfonamido)phenyl)carbamoyl)-1H-pyrazol-1-yl)-2-azaspiro[3.3]heptane-2-carboxylate] | 5850
22 | CS(=O)(=O)Nc1cc(Cl)cc(NC(=O)c2cnn(C3CCNCC3)c2)c1 [Example 145, N-(3-chloro-5-(methylsulfonamido)phenyl)-1-(piperidin-4-yl)-1H-pyrazole-4-carboxamide] | > 10000
23 | CS(=O)(=O)Nc1cc(Cl)cc(NC(=O)c2cnn(C3CC4(CNC4)C3)c2)c1 [Example 146] | > 10000
24 | CS(=O)(=O)Nc1cc(Cl)cc(NC(=O)c2cnn(-c3cc(N4CCNCC4)ccn3)c2)c1 [Example 147] | 834
25 | CC(=O)N1CCN(c2ccnc(-n3cc(C(=O)Nc4cc(Cl)cc(NS(C)(=O)=O)c4)cn3)c2)CC1 [Example 148, 1-[4-(4-acetylpiperazin-1-yl)pyridin-2-yl]-N-(3-chloro-5-methanesulfonamidophenyl)-1H-pyrazole-4-carboxamide] | 4340
26 | CC(C)C(=O)N1CCN(c2ccc(-n3cc(C(=O)Nc4cc(Cl)cc(NS(C)(=O)=O)c4)cn3)nc2)CC1 [Example 149, N-(3-chloro-5-(methylsulfonamido)phenyl)-1-(5-(4-isobutyrylpiperazin-1-yl)pyridin-2-yl)-1H-pyrazole-4-carboxamide] | 1800
27 | CS(=O)(=O)Nc1cc(Cl)cc(NC(=O)c2cnn([C@H]3CC[C@@H](O)CC3)c2)c1 [Example 151, N-(3-chloro-5-(methylsulfonamido)phenyl)-1-((1s,4s)-4-hydroxycyclohexyl)-1H-pyrazole-4-carboxamide] | > 10000

Row | Compound | EC50 [nM]
28 | Cn1cc(C(=O)Nc2cc(Cl)cc(NS(C)(=O)=O)c2)nc1-c1ccccc1 [Example 155, N-(3-chloro-5-(methylsulfonamido)phenyl)-1-methyl-2-phenyl-1H-imidazole-4-carboxamide] | 3610
29 | Cc1cccnc1-c1nc(C(=O)Nc2cc(Cl)cc(NS(C)(=O)=O)c2)cn1C [Example 156] | > 10000
30 | Cn1cc(C(=O)Nc2cc(Cl)cc(NS(C)(=O)=O)c2)cc1N1CCCCC1=O [Example 158, N-(3-chloro-5-(methylsulfonamido)phenyl)-1-methyl-5-(2-oxopiperidin-1-yl)-1H-pyrrole-3-carboxamide] | 1290
31 | CS(=O)(=O)Nc1cc(Br)cc(NC(=O)c2cnn(-c3ccccc3CO)c2)c1 [Example 161, N-(3-bromo-5-(methylsulfonamido)phenyl)-1-(2-(hydroxymethyl)phenyl)-1H-pyrazole-4-carboxamide] | 1420
32 | CS(=O)(=O)Nc1cc(Br)cc(NC(=O)c2cnn(-c3ncccc3N)c2)c1 [Example 162, 1-(3-aminopyridin-2-yl)-N-(3-bromo-5-(methylsulfonamido)phenyl)-1H-pyrazole-4-carboxamide] | 138
33 | CS(=O)(=O)Nc1cc(Cl)cc(NC(=O)c2cc(C(=O)Nc3ccccc3)cs2)c1 [Example 166, N2-(3-chloro-5-(methylsulfonamido)phenyl)-N4-phenylthiophene-2,4-dicarboxamide] | 2390
34 | CCS(=O)(=O)Nc1cc(Cl)cc(NC(=O)c2cc(-c3ncccn3)n(C)c2)c1 [Example 173, N-(3-chloro-5-(ethylsulfonamido)phenyl)-1-methyl-5-(pyrimidin-2-yl)-1H-pyrrole-3-carboxamide] | 118
35 | CS(=O)(=O)Nc1cc(Cl)cc(NC(=O)c2cnn(-c3ncccc3OCc3cccc(O)c3)c2)c1 [Example 179] | 997
36 | CS(=O)(=O)Nc1cc(Cl)cc(NC(=O)c2cnn(-c3ccc(N4CCOCC4=O)cn3)c2)c1 [Example 180] | 1200
37 | CS(=O)(=O)Nc1cc(Cl)cc(NC(=O)c2cc(CN)n(-c3ccccn3)c2)c1 [Example 181] | 2090
38 | CS(=O)(=O)Nc1cc(Cl)cc(NC(=O)c2cnn(C3CCOC3)c2)c1 (stereo not shown) [Example 182] | > 10000
39 | CN1CCN(c2cnc(-n3cc(C(=O)Nc4cc(Cl)cc(NS(C)(=O)=O)c4)cn3)nc2)CC1=O [Example 183] | > 10000
40 | CN1CCN(c2cnc(-n3cc(C(=O)Nc4cc(Cl)cc(NS(C)(=O)=O)c4)cn3)cn2)CC1=O [Example 184] | > 10000
41 | CS(=O)(=O)Nc1cc(Cl)cc(NC(=O)c2cnn(-c3ncccc3OCc3cncnc3)c2)c1 [Example 188] | 1460
42 | CS(=O)(=O)Nc1cc(Cl)cc(NC(=O)c2cnn(-c3ncccc3OCc3ccccc3F)c2)c1 [Example 189] | 308
43 | CS(=O)(=O)Nc1cc(Cl)cc(NC(=O)c2cnn(-c3ccc(C4CCOCC4)cn3)c2)c1 [Example 190] | 373
44 | CS(=O)(=O)Nc1cc(Cl)cc(NC(=O)c2cnn(-c3ccc(N4CCn5ccnc5C4)cn3)c2)c1 [Example 192] | 3600
45 | CN1CCN(c2cnc(-n3cc(C(=O)Nc4cc(Cl)cc(NS(C)(=O)=O)c4)cn3)c(OCc3cccnc3)c2)CC1=O [Example 193] | > 10000
46 | CS(=O)(=O)Nc1cc(Cl)cc(NC(=O)c2cnn(-c3ncc(N4CCOCC4)cc3OCc3cccnc3)c2)c1 [Example 194] | 2680
47 | CC(C)(O)COc1cccnc1-n1cc(C(=O)Nc2cc(Cl)cc(NS(C)(=O)=O)c2)cn1 [Example 195] | 751
48 | CS(=O)(=O)Nc1cc(Cl)cc(NC(=O)c2cnn(-c3ncccc3Oc3ncccn3)c2)c1 [Example 196] | 6730
49 | COc1ccc(-n2cc(C(=O)Nc3cc(Cl)cc(NS(C)(=O)=O)c3)cn2)nc1 [Example 197] | 2370
50 | CS(=O)(=O)Nc1cc(Cl)cc(NC(=O)c2cnn(-c3ccc(S(C)(=O)=O)cn3)c2)c1 [Example 198] | > 10000
51 | CS(=O)(=O)Nc1cc(Cl)cc(NC(=O)c2cnn(-c3ncccc3S(C)(=O)=O)c2)c1 [Example 199] | > 10000
52 | CN(C)S(=O)(=O)c1ccc(-n2cc(C(=O)Nc3cc(Cl)cc(NS(C)(=O)=O)c3)cn2)nc1 [Example 200] | 1310
53 | CP(C)(=O)c1cccnc1-n1cc(C(=O)Nc2cc(Cl)cc(NS(C)(=O)=O)c2)cn1 [Example 201] | > 10000

same assay, conditions: Homo sapiens, HCT-116, read-out: DHX9 Cellular Target Engagement EC50

Row | Compound | EC50 [nM]
54 | CS(=O)(=O)Nc1cc(Cl)cc(NC(=O)c2cnn(-c3ncccc3COc3ccccc3)c2)c1 [Example 167, N-(3-chloro-5-(methylsulfonamido)phenyl)-1-(3-(phenoxymethyl)pyridin-2-yl)-1H-pyrazole-4-carboxamide] | 1750
55 | CS(=O)(=O)Nc1cc(Cl)cc(NC(=O)c2cnn(-c3ncccc3NCc3ccccc3)c2)c1 [Example 168, 1-(3-(benzylamino)pyridin-2-yl)-N-(3-chloro-5-(methylsulfonamido)phenyl)-1H-pyrazole-4-carboxamide] | 2130
